Experimental data reported in patent US4207326A, “Antimicrobial quaternary pyrazole derivatives” (Cilag-Chemie A.G., priority 1979, dated 1980).
Like-named read-outs stand apart in the source and are kept apart here.

Columns and labels:
C. neoformans = test: Antimycotic activity: Minimum Inhibitory Concentration; assay type: cell-based, Cryptococcus neoformans NCPF 3184; details: pH 5.5, 30° C., 72 hours; for Minimum Inhibitory Concentrations: C. neoformans; for MIC: Cryptococcus neoformans
Experimental: (§1) The antimicrobial activity was determined by inoculation of the test microorganism into suitable growth media containing solutions of the compounds at concentrations of 100, 50, 10, 5, 1.0, 0.5 and 0.1 μg/ml. The reference antibiotics used were Gentamicin for the antibacterial tests and Amphotericin B for the antimycotic and antifungal tests. After incubation the antimicrobial activity was recorded as the Minimal Inhibitory Concentration (M.I.C.), i.e., the lowest concentration preventing macroscopically visible growth, for each test compound against each organism.
(§2) An initial solution of each formula (I) compound to be tested in sterile distilled water was prepared at a concentration of 1000 μg/ml. With appropriate dilutions using sterile distilled water, additional solutions were prepared at concentrations of 500, 100, 50, 10, 5 and 1 μg/ml.
The C. neoformans was also maintained on Sabouraud-Dextrose Agar (Oxoid CM 41), but in this case cultures for the preparation of the inoculum were incubated on this agar at 30° C. for 48 hours. A 4.5 ml volume of citric acid-phosphate buffer pH 5.5 plus Yeast-Nitrogen Base (Difco-0392-15) was then inoculated from the agar culture and incubated at 30° C. for 48 hours. A 0.1 ml aliquot of this culture was then added to 100 ml sterile physiological saline to give the final inoculum.
(b) For the tests on each of the C. albicans, C. tropicalis and C. neoformans strains and each of the test and reference compounds, a series of 8 tubes containing 4.5 ml volumes of citric acid-phosphate buffer pH 5.5 plus Yeast-Nitrogen Base (Difco 0392-15) were prepared. To 7 of these were added 0.5 ml volumes of the final solutions of the test compounds, giving final concentrations in the broths of 100, 50, 10, 5, 1.0, 0.5 and 0.1 μg/ml. To the eighth tube in each series was added 0.5 ml of the solvent used and diluted as for the preparation of the 1000 μg/ml solution of the compound. This tube was used as the growth control. The tubes were then inoculated with 0.1 ml aliquots of the inocula prepared as in "(b) Fungi" above. The tubes inoculated with the C. albicans and C. tropicalis were inoculated at 37° C. for 72 hours and the tubes inoculated with the C. neoformans straim were incubated at 30° C. for 72 hours. […] The tubes were then examined for evidence of growth as shown by turbidity of the medium and the lowest concentration of the test compound which prevented fungal growth was recorded as the Minimal Inhibitory Concentration. This test procedure was carried out on two separate days.

P. mirabilis = test: Antibacterial activity: Minimum Inhibitory Concentration; assay type: cell-based, Proteus mirabilis NCTC 8559; details: for MIC: Proteus mirabilis, read-out: Minimum Inhibitory Concentration
Experimental: as §1, §2
(§3) They were cultured and maintained on Tryptone Soy Agar (Oxoid CM 131), with the addition of 10% horse blood for the S. pyogenes.
(§4) To prepare the organisms as inocula for the test, slopes of this medium were streaked with the organisms and incubated at 37° C. for 24 hours. 4.5 Ml volumes of Brian-Heart Infusion Broth (Oxoid CM 225) were then inoculated with a platinum loop from the agar slope cultures and incubated for 24 hours at 37° C. The final inocula were then prepared by adding 0.1 ml aliquots of the Brain-Heart Infusion Broth cultures to 100 ml volumes of sterile physiological saline.
(§5) (a) For the test on each of the bacterial strains and each of the test and reference compounds, a series of 8 tubes containing 4.5 ml volumes of Brain-Heart Infusion Broth (Oxoid CM 225) were prepared. To 7 of these were added 0.5 ml volumes of the final solutions of the test compouns, giving final concentrations in the broths of 100, 50, 10, 5, 1.0, 0.5 and 0.1 μg/ml. To the eighth tube in each series was added 0.5 ml of the solvent used and diluted as for the preparation of the 1000 μg/ml solution of the compound. This tube was used as the growth control. The tubes were inoculated with 0.02 ml aliquots of the inocula prepared in accordance with "(a) Bacteria" above, and incubated at 37° C. for 24 hours. The tubes were then examined for evidence of bacterial growth as shown by turbidity of the medium and the lowest concentration of the test compound which prevented bacterial growth was recorded as the Minimal Inhibitory Concentration. This test procedure was carried out on two separate days.

P. verrucosa = test: Antifungal activity: Minimum Inhibitory Concentration; assay type: cell-based, Phialophore verrucosa NCPF 1119; details: P. verrucosa, 27° C., one week; for MIC: Phialophora verrucosa, read-out: Minimum Inhibitory Concentration
Experimental: as §1, §2
(§6) The A. corymbifera, A. fumigatus, S. schenkii, T. rubrum, T. mentagrophytes, M. canis and P. verrucosa strains were all maintained on Sabouraud-Dextrose Agar (Oxoid CM 41) by incubating for 14 days at 27° C. To prepare the inocula 30 ml volumes of Sabouraud-Liquid medium (Oxoid CM 147) were inoculated from the agar cultures and incubated at 27° C. until heavy uniform growth resulted. The mycelial growth was then broken up by shaking with glass beads.
(§7) 1 Ml aliquots were removed from each of the cultures for the purpose of making viable counts and the cultures were then held at 4° C. The viable counts were made by preparing serial ten-fold dilutions of the cultures in sterile physiological saline and spreading on plates of Sabouraud-Dextrose Agar (Oxoid CM 41) which were then incubated at 27° C. for 14 days. When the viable counts had confirmed that each of the inocula contained approximately 10^6 colony forming units (C.F.U.) per ml the cultures were withdrawn from the refrigerator and used as the inocula for the tests.
(§8) (c) For the tests on each of the remaining seven strains and each of the test and reference compounds, a series of 8 tubes containing 4.5 ml volumes of Sabouraud-Liquid Medium (Oxoid CM 147) were prepared. To 7 of these were added 0.5 ml volumes of the final solutions of the test compounds, giving final concentrations in the broths of 100, 50, 10, 5, 1.0, 0.5 and 0.1 μg/ml. To the eighth tube in each series was added 0.5 ml of the solvent used and diluted as for the preparation of the 500 μg/ml solution of the compound. This tube was used as a growth control. The tubes were then inoculated with 0.1 ml aliquots of the inocula prepared as in "(b) Fungi" above. The tubes were then incubated at 27° C. with continuous shaking for a period of one week. The tubes were then examined for evidence of growth as shown by the presence of mycelial growth in the medium and the lowest concentration of the test compound which prevented fungal growth was recorded as the Minimal Inhibitory Concentration. This test procedure was carried out on two separate days.

P. aeruginosa = test: Antibacterial activity: Minimum Inhibitory Concentration; assay type: cell-based, Pseudomonas aeruginosa ATCC 9027; details: for MIC: Pseudomonas aeruginosa, read-out: Minimum Inhibitory Concentration
Experimental: as §1, §2, §3, §4, §5

S. schenkii = test: Antifungal activity: Minimum Inhibitory Concentration; assay type: cell-based, Sporotrichon schenkii NCPF 3182; details: for MIC: read-out: Minimum Inhibitory Concentration
Experimental: as §1, §2, §6, §7, §8

T. rubrum = test: as above; assay type: cell-based, Trichophyton rubrum NCPF 197; details: T. rubrum, 27° C., one week; for MIC: Trichophyton rubrum, read-out: Minimum Inhibitory Concentration
Experimental: as §1, §2, §6, §7, §8

[1] = P. mirabilis, Day 1, 37° C., 24 hours
[2] = P. mirabilis, Day 2, 37° C., 24 hours
[3] = P. aeruginosa, Day 1, 37° C., 24 hours
[4] = P. aeruginosa, Day 2, 37° C., 24 hours
[5] = S. schenkii, Day 1, 27° C., one week
[6] = S. schenkii, Day 2, 27° C., one week
[7] = pH 5.5, C. neoformans, Day 1, read-out: Minimum Inhibitory Concentrations
[8] = pH 5.5, C. neoformans, Day 2, read-out: Minimum Inhibitory Concentrations

Molecule | Minimum Inhibitory Concentration (P. verrucosa; Day 2) | Minimum Inhibitory Concentration (S. schenkii; [6]) | Minimum Inhibitory Concentration (T. rubrum; Day 2) | MIC (C. neoformans; [7]) | MIC (C. neoformans; [8]) | MIC (P. mirabilis; [1]) | MIC (P. mirabilis; [2]) | MIC (P. verrucosa; Day 1) | MIC (P. verrucosa; Day 2) | MIC (P. aeruginosa; [3]) | MIC (P. aeruginosa; [4]) | MIC (S. schenkii; [5]) | MIC (S. schenkii; [6]) | MIC (T. rubrum; Day 1) | MIC (T. rubrum; Day 2) | other results
2,3(5)-dimethyl-1-dodecyl-pyrazolium methosulfate [Example 8-A] | 10 µg/mL | 10 µg/mL | 10 µg/mL |  |  |  |  |  |  |  |  |  |  |  |  | Minimum Inhibitory Concentrations (C. neoformans; Day 1): 5 µg/mL; Minimum Inhibitory Concentrations (C. neoformans; Day 2): 1 µg/mL; Minimum Inhibitory Concentration (P. mirabilis; [1]): 100 µg/mL; Minimum Inhibitory Concentration (P. mirabilis; [2]): 100 µg/mL; Minimum Inhibitory Concentration (P. verrucosa; Day 1): 10 µg/mL; Minimum Inhibitory Concentration (P. aeruginosa; [3]): 50 µg/mL; Minimum Inhibitory Concentration (P. aeruginosa; [4]): 50 µg/mL; Minimum Inhibitory Concentration (S. schenkii; [5]): 10 µg/mL; Minimum Inhibitory Concentration (T. rubrum; Day 1): 5 µg/mL
2,3(5)-dimethyl-1-hexadecyl-pyrazolium methosulfate [Example 9] | 10 µg/mL | 5 µg/mL | 5 µg/mL |  |  |  |  |  |  |  |  |  |  |  |  | Minimum Inhibitory Concentrations (C. neoformans; Day 1): 1 µg/mL; Minimum Inhibitory Concentrations (C. neoformans; Day 2): 0.5 µg/mL; Minimum Inhibitory Concentration (P. mirabilis; [1]): 10 µg/mL; Minimum Inhibitory Concentration (P. mirabilis; [2]): 10 µg/mL; Minimum Inhibitory Concentration (P. verrucosa; Day 1): 5 µg/mL; Minimum Inhibitory Concentration (P. aeruginosa; [3]): 10 µg/mL; Minimum Inhibitory Concentration (P. aeruginosa; [4]): 10 µg/mL; Minimum Inhibitory Concentration (S. schenkii; [5]): 5 µg/mL; Minimum Inhibitory Concentration (T. rubrum; Day 1): 5 µg/mL
CCCCCCCCCCCCn1c(C)cc(C)[n+]1C [Example 1, 1-dodecyl-2,3,5-trimethyl-pyrazolium methosulfate] |  |  |  | 0.5 µg/mL | 0.5 µg/mL | 100 µg/mL | 100 µg/mL | 5 µg/mL | 5 µg/mL | 50 µg/mL | 10 µg/mL | 50 µg/mL | 10 µg/mL | 10 µg/mL | 10 µg/mL | 
CCCCCCCCCCCCCCCCn1c(C)cc(C)[n+]1C [Example 2, 1-hexadecyl-2,3,5-trimethyl-pyrazolium methosulfate] |  |  |  | 0.5 µg/mL | 0.5 µg/mL | 10 µg/mL | 10 µg/mL | 5 µg/mL | 10 µg/mL | 10 µg/mL | 5 µg/mL | 10 µg/mL | 10 µg/mL | 5 µg/mL | 5 µg/mL | 
CCCCCCCCCCCCCCCCn1ccc[n+]1C [Example 3-D, 1-hexadecyl-2-methyl-pyrazolium methosulfate] |  |  |  | 5 µg/mL | 1 µg/mL | 10 µg/mL | 50 µg/mL | 5 µg/mL | 5 µg/mL | 50 µg/mL | 10 µg/mL | 5 µg/mL | 10 µg/mL | 1 µg/mL | 1 µg/mL | 
CCCCCCCCCCCCn1ccc[n+]1C [Example 3-E, 1-dodecyl-2-methy-pyrazolium methosulfate] |  |  |  | 1 µg/mL | 5 µg/mL | 100 µg/mL | 100 µg/mL | 5 µg/mL | 10 µg/mL | 50 µg/mL | 50 µg/mL | 50 µg/mL | 10 µg/mL | 5 µg/mL | 5 µg/mL | 
CCCCCCCCCCCCCCn1ccc[n+]1C [Example 3-G, 2-methyl-1-tetradecyl-pyrazolium methosulfate] |  |  |  | 1 µg/mL | 1 µg/mL | 50 µg/mL | 50 µg/mL | 5 µg/mL | 5 µg/mL | 10 µg/mL | 10 µg/mL | 5 µg/mL | 10 µg/mL | 1 µg/mL | 5 µg/mL | 
CCCCCCCCCCCC[n+]1c(C)cc(C)n1Cc1ccc(Cl)cc1Cl.[Br-] [Example 6-B, 2-(2,4-dichlorobenzyl)-3,5-dimethyl-1-dodecyl-pyrazolium bromide] |  |  |  | 1 µg/mL | 1 µg/mL | 50 µg/mL | 50 µg/mL | 5 µg/mL | 5 µg/mL | 10 µg/mL | 10 µg/mL | 1 µg/mL | 1 µg/mL | 5 µg/mL | 1 µg/mL | 
CCCCCCCCCCCCCCCC[n+]1c(C)cc(C)n1C.Cc1ccc(S(=O)(=O)[O-])cc1 [Example 6-C, 1-hexadecyl-2,3,5-trimethylpyrazolium p-toluene sulfonate] | 5 µg/mL | 5 µg/mL | 5 µg/mL |  |  |  |  |  |  |  |  |  |  |  |  | MIC (C. neoformans; pH 5.5, read-out: Minimum Inhibitory Concentrations, C. neoformans, Day 1): 1 µg/mL; MIC (C. neoformans; pH 5.5, read-out: Minimum Inhibitory Concentrations, C. neoformans, Day 2): 1 µg/mL; MIC (P. mirabilis): 50 µg/mL; MIC (P. aeruginosa; 24 h): 5 µg/mL; MIC (P. aeruginosa): 10 µg/mL; MIC (S. schenkii): 5 µg/mL
